Test: Lipolysis: glycerol release from differentiated 3T3-L1 adipocytes
Type: cell-based
Conditions: 2 mM, twice a day for 48 hours
Experimental: This study aims to evaluate in vitro effect of Nelumbo nucifera (Lotus) Extract on lipolysis by evaluating glycerol release on preadipocytes. Lipolysis is the hydrolysis of triglycerides into glycerol and fatty acids. The amount of glycerol release will be proportional to both the amount of stored triglyceride and the degree of lipolysis 3T3-L1 pre-adipocytes (ATCC) were cultured in DMEM 4.5 g/L glucose (Lonza) supplemented with 10% of FBS (Lonza), 2 mM of L-Glutamine (Lonza) and 100 μg/ml of Primocin (InvivoGen). 2 days after the cells' confluence, differentiation into adipocytes was induced by adding 0.5 mM IBMX, 1 μM dexamethasone and 10 μg/ml insulin (Sigma) in the culture medium for 3 days. Afterwards, IBMX and dexamethasone were removed and only the insulin was maintained for 3 to 4 days; then, the insulin was also removed, and the cells were maintained in culture medium for another 3 days. After differentiation, cells were treated with Nelumbo nucifera (Lotus) Extract of example 1 diluted at 1/10.000 eme in culture medium, further noted as Lotus 0.01% (volume/volume) or with 2 mM caffeine positive control, twice a day for 48 hours. Then glycerol release was measured using Adipolysis Assay Kit (Cayman Chemical), according to the manufacturer's instructions.

## Cn1c(=O)c2c(ncn2C)n(C)c1=O [Caffeine, caffeine]
  Glycerol release (% of untreated): 131 % of untreated

Reference: patent US10806693B2, “Method for increasing lipolysis using a composition comprising bioactive Nelumbo nucifera (lotus) extract” (ISP Investments LLC, priority 2016, dated 2020)
